Values after ≈ are worked out from the molar mass of the structure shown. Active and inactive are the calls of the source. The rule behind the calls is not given here.
What was measured:
Micrococcus luteus = experiment: Antimicrobial activity against Micrococcus luteus by serial dilution method; format: functional
Mycolicibacterium phlei = experiment: Antimicrobial activity against Mycobacterium phlei by serial dilution method; format: functional
Staphylococcus aureus = experiment: Antimicrobial activity against Staphylococcus aureus by serial dilution method; format: functional
Escherichia coli = experiment: Antimicrobial activity against Escherichia coli by serial dilution method; format: functional
Saccharomyces cerevisiae = experiment: Antimicrobial activity against Saccharomyces cerevisiae by serial dilution method; format: functional
Bacillus subtilis = experiment: Antimicrobial activity against Bacillus subtilis by serial dilution method; format: functional
[1] = system: Corynebacterium glutamicum; experiment: Antimicrobial activity against Corynebacterium glutamicum by serial dilution method; format: functional
Agromyces mediolanus = experiment: Antimicrobial activity against Corynebacterium mediolanum by serial dilution method; format: functional
Mycobacterium sp. = experiment: Antimicrobial activity against Mycobacterium sp. by serial dilution method; format: functional, organism-based
Gordonia rubripertincta = experiment: Antimicrobial activity against Nocardia coralline by serial dilution method; format: functional

COC(=O)CC/C=C/[C@@H](O)C/C=C/C=C/C=C/CC/C=C/C=C/[C@@H](O)[C@@H](C)CO
MIC (Micrococcus luteus): > 80 µg/mL | MIC (Mycolicibacterium phlei): > 40 µg/mL | MIC (Staphylococcus aureus): 80 µg/mL (≈ 198 µM) | MIC (Escherichia coli): > 80 µg/mL | MIC (Saccharomyces cerevisiae): > 80 µg/mL | MIC (Bacillus subtilis): 20 µg/mL (≈ 49.4 µM) | MIC [1]: 80 µg/mL (≈ 198 µM) | MIC (Agromyces mediolanus): 40 µg/mL (≈ 98.9 µM)

COC(=O)CC/C=C(\C)[C@@H](O)C/C=C/C=C/C=C/C=C/C=C/C(C)=C/[C@@H](O)[C@@H](C)[C@@H]1C[C@H](O)CCC[C@H](OC)C/C=C\C=C\C[C@H](C)[C@@H](O)[C@H](C)[C@@H](O)[C@H](C)[C@H](O)CC(=O)O1 [ETNANGIEN METHYL ESTER]
MIC (Micrococcus luteus): 0.06 µg/mL (≈ 0.0702 µM) | MIC (Staphylococcus aureus): 2.5 µg/mL (≈ 2.92 µM) | MIC (Escherichia coli): > 20 µg/mL | MIC (Saccharomyces cerevisiae): > 40 µg/mL | MIC (Bacillus subtilis): 20 µg/mL (≈ 23.4 µM) | MIC [1]: 0.24 µg/mL (≈ 0.281 µM) | Activity (Mycobacterium sp.): Active | Activity (Gordonia rubripertincta): Active

COC(=O)CC/C=C/[C@@H](O)C/C=C/C=C/C=C/C=C/C=C/[C@@H](O)[C@@H](C)CO
MIC (Micrococcus luteus): > 80 µg/mL | MIC (Mycolicibacterium phlei): > 40 µg/mL | MIC (Staphylococcus aureus): > 80 µg/mL | MIC (Escherichia coli): > 80 µg/mL | MIC (Saccharomyces cerevisiae): > 80 µg/mL | MIC (Bacillus subtilis): > 80 µg/mL | MIC [1]: > 80 µg/mL | MIC (Agromyces mediolanus): > 80 µg/mL

COC(=O)CC/C(C)=C/[C@@H](O)C/C=C/C=C/C=C/C=C/C=C/C(C)=C/[C@@H](O)[C@@H](C)COCc1ccc(OC)cc1
MIC (Micrococcus luteus): > 40 µg/mL | MIC (Mycolicibacterium phlei): > 40 µg/mL | MIC (Staphylococcus aureus): > 40 µg/mL | MIC (Escherichia coli): > 40 µg/mL | MIC (Saccharomyces cerevisiae): > 40 µg/mL | MIC (Bacillus subtilis): > 40 µg/mL | MIC [1]: > 40 µg/mL | MIC (Agromyces mediolanus): > 40 µg/mL

COC(=O)CC/C=C/[C@@H](O)C/C=C/C=C/C=C/CC/C=C/C=C/[C@@H](O)[C@@H](C)COCc1ccc(OC)cc1
MIC (Micrococcus luteus): > 80 µg/mL | MIC (Mycolicibacterium phlei): > 40 µg/mL | MIC (Staphylococcus aureus): > 80 µg/mL | MIC (Escherichia coli): > 80 µg/mL | MIC (Saccharomyces cerevisiae): > 80 µg/mL | MIC (Bacillus subtilis): > 80 µg/mL | MIC [1]: > 80 µg/mL | MIC (Agromyces mediolanus): > 80 µg/mL

CO[C@@H]1C/C=C\C=C\C[C@H](C)[C@@H](O)[C@H](C)[C@@H](O)[C@H](C)[C@H](O)CC(=O)O[C@H]([C@H](C)[C@H](O)/C=C(C)/C=C/C=C/C=C/C=C/C=C/C[C@H](O)/C(C)=C/CCC(=O)O)C[C@H](O)CCC1 [ETNANGIEN]
MIC (Micrococcus luteus): 0.39 µg/mL (≈ 0.464 µM) | MIC (Mycolicibacterium phlei): 0.12 µg/mL (≈ 0.143 µM) | MIC (Staphylococcus aureus): 1 µg/mL (≈ 1.19 µM) | MIC (Escherichia coli): > 80 µg/mL | MIC (Saccharomyces cerevisiae): > 80 µg/mL | MIC (Bacillus subtilis): 10 µg/mL (≈ 11.9 µM) | MIC [1]: 0.03 µg/mL (≈ 0.0357 µM) | MIC (Agromyces mediolanus): 0.06 µg/mL (≈ 0.0713 µM) | Activity (Mycobacterium sp.): Active | Activity (Gordonia rubripertincta): Active

COC(=O)CC/C=C/[C@@H](O)C/C=C/C=C/C=C/C=C/C=C/[C@@H](O)[C@@H](C)COCc1ccc(OC)cc1
MIC (Micrococcus luteus): > 80 µg/mL | MIC (Mycolicibacterium phlei): > 40 µg/mL | MIC (Staphylococcus aureus): > 80 µg/mL | MIC (Escherichia coli): > 80 µg/mL | MIC (Saccharomyces cerevisiae): > 80 µg/mL | MIC (Bacillus subtilis): > 80 µg/mL | MIC [1]: 80 µg/mL (≈ 161 µM) | MIC (Agromyces mediolanus): > 80 µg/mL

Reference: ChEMBL document CHEMBL2062489, “Design, synthesis and biological evaluation of simplified side chains of the macrolide antibiotic etnangien” (2012)
